Reference: ChEMBL document CHEMBL3046287, “Azoxystrobin resistance of French Mycosphaerella graminicola strains assessed by four in vitro bioassays and by screening of G143A substitution” (Crop Prot, 2010)
Converted amounts (≈) assume the structure as drawn.

Tests used:
Type in all cases: functional, organism-based
Zymoseptoria tritici [1] = assay: Antifungal activity against azoxystrobin-sensitive Zymoseptoria tritici T0209 carrying cytochrome-b G143 allele assessed as inhibition of spore germination after 2 days at 18 degC by spotting on PDA medium assay; settings: T0209, 48 h
Zymoseptoria tritici [2] = assay: Antifungal activity against azoxystrobin-sensitive Zymoseptoria tritici T0460 carrying cytochrome-b G143 allele assessed as fungal colony perpendicular diameter changes after 10 days at 18 degC by spotting on PDA medium assay; settings: T0460, 240 h
Zymoseptoria tritici [3] = assay: Antifungal activity against azoxystrobin-sensitive Zymoseptoria tritici T0278 carrying cytochrome-b G143 allele assessed as fungal growth inhibition after 6 days at 20 degC by microplate without alamar blue assay; settings: T0278, 144 h
Zymoseptoria tritici [4] = assay: Antifungal activity against azoxystrobin-sensitive Zymoseptoria tritici T0213 carrying cytochrome-b G143 allele assessed as fungal growth inhibition after 6 days at 20 degC by microplate without alamar blue assay; settings: T0213, 144 h
Zymoseptoria tritici [5] = assay: Antifungal activity against azoxystrobin-resistant Zymoseptoria tritici T0451 carrying cytochrome-b A143 allele assessed as fungal colony perpendicular diameter changes after 10 days at 18 degC by spotting on PDA medium assay; settings: T0451, 240 h
Zymoseptoria tritici [6] = assay: Antifungal activity against azoxystrobin-sensitive Zymoseptoria tritici T0148 carrying cytochrome-b G143 allele assessed as fungal growth inhibition after 6 days at 20 degC by microplate without alamar blue assay; settings: T0148, 144 h
Zymoseptoria tritici [7] = assay: Antifungal activity against azoxystrobin-resistant Zymoseptoria tritici T0262 carrying cytochrome-b A143 allele assessed as fungal colony perpendicular diameter changes after 10 days at 18 degC by spotting on PDA medium assay; settings: T0262, 240 h
Zymoseptoria tritici [8] = assay: Antifungal activity against azoxystrobin-sensitive Zymoseptoria tritici T0470 carrying cytochrome-b G143 allele assessed as fungal colony perpendicular diameter changes after 10 days at 18 degC by spotting on PDA medium assay; settings: T0470, 240 h
Zymoseptoria tritici [9] = assay: Antifungal activity against azoxystrobin-resistant Zymoseptoria tritici T0242 carrying cytochrome-b A143 allele assessed as fungal colony perpendicular diameter changes after 10 days at 18 degC by spotting on PDA medium assay; settings: T0242, 240 h
Zymoseptoria tritici [10] = assay: Antifungal activity against azoxystrobin-resistant Zymoseptoria tritici T0262 carrying cytochrome-b A143 allele assessed as fungal growth inhibition after 6 days at 20 degC by microplate without alamar blue assay; settings: T0262, 144 h
Zymoseptoria tritici [11] = assay: Antifungal activity against azoxystrobin-resistant Zymoseptoria tritici T0451 carrying cytochrome-b A143 allele assessed as fungal growth inhibition after 6 days at 20 degC by microplate without alamar blue assay; settings: T0451, 144 h
Zymoseptoria tritici [12] = assay: Antifungal activity against azoxystrobin-resistant Zymoseptoria tritici T0293 carrying cytochrome-b A143 allele assessed as fungal colony perpendicular diameter changes after 10 days at 18 degC by spotting on PDA medium assay; settings: T0293, 240 h
Zymoseptoria tritici [13] = assay: Antifungal activity against azoxystrobin-sensitive Zymoseptoria tritici T0460 carrying cytochrome-b G143 allele assessed as inhibition of spore germination after 2 days at 18 degC by spotting on PDA medium assay; settings: T0460, 48 h
Zymoseptoria tritici [14] = assay: Antifungal activity against azoxystrobin-resistant Zymoseptoria tritici T0414 carrying cytochrome-b A143 allele assessed as fungal growth inhibition after 6 days at 20 degC by microplate without alamar blue assay; settings: T0414, 144 h
Zymoseptoria tritici [15] = assay: Antifungal activity against azoxystrobin-resistant Zymoseptoria tritici T0485 carrying cytochrome-b A143 allele assessed as inhibition of spore germination after 2 days at 18 degC by spotting on PDA medium assay; settings: T0485, 48 h
Zymoseptoria tritici [16] = assay: Antifungal activity against azoxystrobin-sensitive Zymoseptoria tritici T0214 carrying cytochrome-b G143 allele assessed as fungal growth inhibition after 6 days at 20 degC by microplate without alamar blue assay; settings: T0214, 144 h
Zymoseptoria tritici [17] = assay: Antifungal activity against azoxystrobin-resistant Zymoseptoria tritici T0251 carrying cytochrome-b A143 allele assessed as inhibition of spore germination after 2 days at 18 degC by spotting on PDA medium assay; settings: T0251, 48 h
Zymoseptoria tritici [18] = assay: Antifungal activity against azoxystrobin-sensitive Zymoseptoria tritici T0365 carrying cytochrome-b G143 allele assessed as inhibition of spore germination after 2 days at 18 degC by spotting on PDA medium assay; settings: T0365, 48 h
Zymoseptoria tritici [19] = assay: Antifungal activity against azoxystrobin-resistant Zymoseptoria tritici T049 carrying cytochrome-b A143 allele assessed as fungal colony perpendicular diameter changes after 10 days at 18 degC by spotting on PDA medium assay; settings: T049, 240 h
Zymoseptoria tritici [20] = assay: Antifungal activity against azoxystrobin-sensitive Zymoseptoria tritici T083 carrying cytochrome-b G143 allele assessed as fungal colony perpendicular diameter changes after 10 days at 18 degC by spotting on PDA medium assay; settings: T083, 240 h
Zymoseptoria tritici [21] = assay: Antifungal activity against azoxystrobin-resistant Zymoseptoria tritici T055 carrying cytochrome-b A143 allele assessed as inhibition of spore germination after 2 days at 18 degC by spotting on PDA medium assay; settings: T055, 48 h
Zymoseptoria tritici [22] = assay: Antifungal activity against azoxystrobin-sensitive Zymoseptoria tritici IPO323 carrying cytochrome-b G143 allele assessed as inhibition of spore germination after 2 days at 18 degC by spotting on PDA medium assay; settings: IPO323, 48 h
Zymoseptoria tritici [23] = assay: Antifungal activity against azoxystrobin-sensitive Zymoseptoria tritici T021 carrying cytochrome-b G143 allele assessed as fungal growth inhibition after 6 days at 20 degC by microplate without alamar blue assay; settings: T021, 144 h
Zymoseptoria tritici [24] = assay: Antifungal activity against azoxystrobin-sensitive Zymoseptoria tritici T0473 carrying cytochrome-b G143 allele assessed as fungal growth inhibition after 6 days at 20 degC by microplate without alamar blue assay; settings: T0473, 144 h
Zymoseptoria tritici [25] = assay: Antifungal activity against azoxystrobin-sensitive Zymoseptoria tritici T0210 carrying cytochrome-b G143 allele assessed as fungal colony perpendicular diameter changes after 10 days at 18 degC by spotting on PDA medium assay; settings: T0210, 240 h
Zymoseptoria tritici [26] = assay: Antifungal activity against azoxystrobin-resistant Zymoseptoria tritici T032 carrying cytochrome-b A143 allele assessed as inhibition of spore germination after 2 days at 18 degC by spotting on PDA medium assay; settings: T032, 48 h
Zymoseptoria tritici [27] = assay: Antifungal activity against azoxystrobin-sensitive Zymoseptoria tritici T0470 carrying cytochrome-b G143 allele assessed as fungal growth inhibition after 6 days at 20 degC by microplate without alamar blue assay; settings: T0470, 144 h
Zymoseptoria tritici [28] = assay: Antifungal activity against azoxystrobin-resistant Zymoseptoria tritici T0414 carrying cytochrome-b A143 allele assessed as fungal colony perpendicular diameter changes after 10 days at 18 degC by spotting on PDA medium assay; settings: T0414, 240 h
Zymoseptoria tritici [29] = assay: Antifungal activity against azoxystrobin-resistant Zymoseptoria tritici T0414 carrying cytochrome-b A143 allele assessed as inhibition of spore germination after 2 days at 18 degC by spotting on PDA medium assay; settings: T0414, 48 h
Zymoseptoria tritici [30] = assay: Antifungal activity against azoxystrobin-resistant Zymoseptoria tritici T0293 carrying cytochrome-b A143 allele assessed as fungal growth inhibition after 6 days at 20 degC by microplate without alamar blue assay; settings: T0293, 144 h

Structure (SMILES): CO/C=C(/C(=O)OC)c1ccccc1Oc1cc(Oc2ccccc2C#N)ncn1 [AZOXYSTROBIN]
- IC50 (Zymoseptoria tritici [1]): 0.09 µg/mL (≈ 0.223 µM)
- IC50 (Zymoseptoria tritici [2]): 0.09 µg/mL (≈ 0.223 µM)
- IC50 (Zymoseptoria tritici [3]): 0.04 µg/mL (≈ 0.0992 µM)
- IC50 (Zymoseptoria tritici [4]): 0.03 µg/mL (≈ 0.0744 µM)
- IC50 (Zymoseptoria tritici [5]): 14.7 µg/mL (≈ 36.5 µM)
- IC50 (Zymoseptoria tritici [6]): 0.21 µg/mL (≈ 0.521 µM)
- IC50 (Zymoseptoria tritici [7]): 9.91 µg/mL (≈ 24.6 µM)
- IC50 (Zymoseptoria tritici [8]): 0.06 µg/mL (≈ 0.149 µM)
- IC50 (Zymoseptoria tritici [9]): 12 µg/mL (≈ 29.7 µM)
- IC50 (Zymoseptoria tritici [10]): 11.7 µg/mL (≈ 28.9 µM)
- IC50 (Zymoseptoria tritici [11]): > 100 µg/mL
- IC50 (Zymoseptoria tritici [12]): 10.2 µg/mL (≈ 25.2 µM)
- IC50 (Zymoseptoria tritici [13]): 0.13 µg/mL (≈ 0.322 µM)
- IC50 (Zymoseptoria tritici [14]): > 100 µg/mL
- IC50 (Zymoseptoria tritici [15]): 14.6 µg/mL (≈ 36.3 µM)
- IC50 (Zymoseptoria tritici [16]): 0.02 µg/mL (≈ 0.0496 µM)
- IC50 (Zymoseptoria tritici [17]): 34.1 µg/mL (≈ 84.7 µM)
- IC50 (Zymoseptoria tritici [18]): 0.06 µg/mL (≈ 0.149 µM)
- IC50 (Zymoseptoria tritici [19]): 19.4 µg/mL (≈ 48.2 µM)
- IC50 (Zymoseptoria tritici [20]): 0.22 µg/mL (≈ 0.545 µM)
- IC50 (Zymoseptoria tritici [21]): 15.6 µg/mL (≈ 38.6 µM)
- IC50 (Zymoseptoria tritici [22]): 0.07 µg/mL (≈ 0.174 µM)
- IC50 (Zymoseptoria tritici [23]): 0.22 µg/mL (≈ 0.545 µM)
- IC50 (Zymoseptoria tritici [24]): 0.01 µg/mL (≈ 0.0248 µM)
- IC50 (Zymoseptoria tritici [25]): 0.06 µg/mL (≈ 0.149 µM)
- IC50 (Zymoseptoria tritici [26]): 11.6 µg/mL (≈ 28.7 µM)
- IC50 (Zymoseptoria tritici [27]): < 0.01 µg/mL
- IC50 (Zymoseptoria tritici [28]): 11.8 µg/mL (≈ 29.3 µM)
- IC50 (Zymoseptoria tritici [29]): 16.2 µg/mL (≈ 40.3 µM)
- IC50 (Zymoseptoria tritici [30]): > 100 µg/mL
